One data set concerns Plutella xylostella. Description: Example B4: Plutella xylostella (diamond back moth), artificial diet. Format: in vivo. As to conditions: 192 h, application rate 200 ppm, eggs, 8 days after infestation, vs untreated, read-out: control in at least one of the two categories (mortality or growth inhibition). The procedure:
Example B4: Plutella xylostella (Diamond Back Moth)
24-well microtiter plates with artificial diet were treated with aqueous test solutions prepared from 10′000 ppm DMSO stock solutions by pipetting. After drying, Plutella eggs were pipetted through a plastic stencil onto a gel blotting paper and the plate was closed with it. The samples were assessed for mortality and growth inhibition in comparison to untreated samples 8 days after infestation. The following compounds gave an effect of at least 80% control in at least one of the two categories (mortality or growth inhibition) at an application rate of 200 ppm: […]

In another data set the test system is Diabrotica balteata. Description: Example B1: Diabrotica balteata (corn root worm), maize sprouts sprayed. As to conditions: 96 h, application rate 200 ppm, L2 larvae, 4 days after infestation, vs untreated, read-out: control in at least one of the two categories (mortality or growth inhibition). It is filed as in vivo. On the procedure: Example B1: Diabrotica balteata (Corn Root Worm)
Maize sprouts placed onto an agar layer in 24-well microtiter plates were treated with aqueous test solutions prepared from 10′000 ppm DMSO stock solutions by spraying. After drying, the plates were infested with L2 larvae (6 to 10 per well). The samples were assessed for mortality and growth inhibition in comparison to untreated samples 4 days after infestation.
(§1) The following compounds gave an effect of at least 80% control in at least one of the two categories (mortality or growth inhibition) at an application rate of 200 ppm: […]

The test system of another data set is Euschistus heros. Put plainly: Example B2: Euschistus heros (neotropical brown stink bug), soybean leaves sprayed. It is filed as in vivo. As to conditions: 120 h, application rate 200 ppm, N2 nymphs, 5 days after infestation, vs untreated, read-out: control in at least one of the two categories (mortality or growth inhibition). The procedure:
Example B2: Euschistus heros (Neotropical Brown Stink Bug)
Soybean leaves on agar in 24-well microtiter plates were sprayed with aqueous test solutions prepared from 10′000 ppm DMSO stock solutions. After drying the leaves were infested with N2 nymphs. The samples were assessed for mortality and growth inhibition in comparison to untreated samples 5 days after infestation.
as §1

A further data set concerns Chilo suppressalis. Description: Example B3: Chilo suppressalis (striped rice stemborer), artificial diet. Format: in vivo. As to conditions: 144 h, application rate 200 ppm, L2 larvae, 6 days after infestation, vs untreated, read-out: control in at least one of the three categories (mortality, anti-feedant effect, or growth inhibition). The procedure:
Example B3: Chilo suppressalis (Striped Rice Stemborer)
24-well microtiter plates with artificial diet were treated with aqueous test solutions prepared from 10′000 ppm DMSO stock solutions by pipetting. After drying, the plates were infested with L2 larvae (6-8 per well). The samples were assessed for mortality, anti-feeding effect, and growth inhibition in comparison to untreated samples 6 days after infestation. Control of Chilo suppressalis by a test sample is given when at least one of the categories mortality, anti-feedant effect, and growth inhibition is higher than the untreated sample.

Another data set concerns Spodoptera littoralis. Put plainly: Example B6: Spodoptera littoralis (Egyptian cotton leaf worm), cotton leaf discs sprayed. It is filed as in vivo. Particulars: foliar, 72 h, application rate 200 ppm, L1 larvae, 3 days after infestation, vs untreated, read-out: control in at least one of the three categories (mortality, anti-feedant effect, or growth inhibition). The procedure: Example B6: Spodoptera littoralis (Egyptian Cotton Leaf Worm)
Cotton leaf discs were placed onto agar in 24-well microtiter plates and sprayed with aqueous test solutions prepared from 10′000 ppm DMSO stock solutions. After drying the leaf discs were infested with five L1 larvae. The samples were assessed for mortality, anti-feeding effect, and growth inhibition in comparison to untreated samples 3 days after infestation. Control of Spodoptera littoralis by a test sample is given when at least one of the categories mortality, anti-feedant effect, and growth inhibition is higher than the untreated sample.

The structures appear in SMILES notation. A value given as a limit tells only on which side of the number the result lay.

Turning to `CCNC(=O)c1nccnc1C(C)NC(=O)c1cc(OCC(F)F)cc(C(F)(F)F)c1` (stereo not shown) [P.9, 3-[1-[[3-(2,2-difluoroethoxy)-5-(trifluoromethyl)benzoyl]amino]ethyl]-N-ethyl-pyrazine-2-carboxamide], the melting point is 134 °C. Same read-out and setting: next, `COCC(C)NC(=O)c1nccnc1C(C)NC(=O)c1cc(C(F)(F)F)cc(C(F)(F)F)c1` (stereo not shown) [P.18, 3-[1-[[3,5-bis(trifluoromethyl)benzoyl]amino]ethyl]-N-(2-methoxy-1-methyl-ethyl)pyrazine-2-carboxamide]: 127 °C; `CC(NC(=O)c1cc(C(F)(F)F)cc(C(F)(F)F)c1)c1nccnc1C(=O)N1CCOCC1` (stereo not shown) [P.14, N-[1-[3-(morpholine-4-carbonyl)pyrazin-2-yl]ethyl]-3,5-bis(trifluoromethyl)benzamide]: 81 °C. On the same count and under the same terms, under `CC(NC(=O)c1cc(C(F)(F)F)cc(C(F)(F)F)c1)c1nccnc1C(=O)Nc1ncccn1` (stereo not shown) [P.7, 3-[1-[[3,5-bis(trifluoromethyl)benzoyl]amino]ethyl]-N-pyrimidin-2-yl-pyrazine-2-carboxamide] stands 201 °C. `CCNC(=O)c1nccnc1C(C)NC(=O)c1cc(C(F)(F)F)cc(C(F)(F)F)c1` (stereo not shown) [Compound P1, 3-[1-[[3,5-bis(trifluoromethyl)benzoyl]amino]ethyl]-N-ethyl-pyrazine-2-carboxamide]: the percent control (mortality or growth inhibition) at 200 ppm with Plutella xylostella, in the data set on Diabrotica balteata and in the data set with Euschistus heros was not below 80% each time. For the same compound, the percent control (mortality, anti-feedant effect or growth inhibition) at 200 ppm in the data set on Chilo suppressalis and in the data set on Spodoptera littoralis was not below 80% in each case. `COCC(C)(C)NC(=O)c1nccnc1C(C)NC(=O)c1cc(C(F)(F)F)cc(C(F)(F)F)c1` (stereo not shown) [P.17, 3-[1-[[3,5-bis(trifluoromethyl)benzoyl]amino]ethyl]-N-(2-methoxy-1,1-dimethyl-ethyl)pyrazine-2-carboxamide] registered a melting point of 132 °C. Same read-out and setting: next, `CC(NC(=O)c1cc(C(F)(F)F)cc(C(F)(F)F)c1)c1nccnc1C(=O)Nc1ccc(C#N)cn1` (stereo not shown) [P.10, 3-[1-[[3,5-bis(trifluoromethyl)benzoyl]amino]ethyl]-N-(5-cyano-2-pyridyl)pyrazine-2-carboxamide]: 215 °C.

Regarding `C=CCNC(=O)c1nccnc1C(C)NC(=O)c1cc(C(F)(F)F)cc(C(F)(F)F)c1` (stereo not shown) [Compound P6, N-allyl-3-[1-[[3,5-bis(trifluoromethyl)benzoyl]amino]ethyl]pyrazine-2-carboxamide], the percent control (mortality or growth inhibition) at 200 ppm in the data set with Plutella xylostella was not below 80%. Further, the percent control (mortality, anti-feedant effect or growth inhibition) at 200 ppm in the data set with Chilo suppressalis was not below 80%. Consider `CC(NC(=O)c1cc(C(F)(F)F)cc(C(F)(F)F)c1)c1nccnc1C(=O)NC1CC1` (stereo not shown) [Compound P5, 3-[1-[[3,5-bis(trifluoromethyl)benzoyl]amino]ethyl]-N-cyclopropyl-pyrazine-2-carboxamide], for which, in the data set on Plutella xylostella, the percent control (mortality or growth inhibition) at 200 ppm is not below 80%. In addition, the percent control (mortality, anti-feedant effect or growth inhibition) at 200 ppm with Chilo suppressalis and in the data set on Spodoptera littoralis was not below 80% throughout. With `CCCCNC(=O)c1nccnc1C(C)NC(=O)c1cc(C(F)(F)F)cc(C(F)(F)F)c1` (stereo not shown) [Compound P3, 3-[1-[[3,5-bis(trifluoromethyl)benzoyl]amino]ethyl]-N-butyl-pyrazine-2-carboxamide], the percent control (mortality, anti-feedant effect or growth inhibition) at 200 ppm with Chilo suppressalis is not below 80%. Regarding `COCCNC(=O)c1nccnc1C(C)NC(=O)c1cc(C(F)(F)F)cc(C(F)(F)F)c1` (stereo not shown) [P.4, 3-[1-[[3,5-bis(trifluoromethyl)benzoyl]amino]ethyl]-N-(2-methoxyethyl)pyrazine-2-carboxamide], the melting point amounted to 128 °C. The same measure, in the same setting: under `CCNC(=O)c1nccnc1C(C)NC(=O)c1cc(OCC(F)(F)F)cc(C(F)(F)F)c1` (stereo not shown) [P.8, N-ethyl-3-[1-[[3-(2,2,2-trifluoroethoxy)-5-(trifluoromethyl)benzoyl]amino]ethyl]pyrazine-2-carboxamide] stands 136 °C. Same read-out and setting: next, `CC(NC(=O)c1cc(C(F)(F)F)cc(C(F)(F)F)c1)c1nccnc1C(=O)NC1(C#N)CC1` (stereo not shown) [P.16, 3-[1-[[3,5-bis(trifluoromethyl)benzoyl]amino]ethyl]-N-(1-cyanocyclopropyl)pyrazine-2-carboxamide]: 123 °C; `CC(NC(=O)c1cc(C(F)(F)F)cc(C(F)(F)F)c1)c1nccnc1C(=O)NC(C)(C)C#N` (stereo not shown) [P.15, 3-[1-[[3,5-bis(trifluoromethyl)benzoyl]amino]ethyl]-N-(1-cyano-1-methyl-ethyl)pyrazine-2-carboxamide]: 195 °C. On the same count and under the same terms, under `CCN(C)C(=O)c1nccnc1C(C)NC(=O)c1cc(C(F)(F)F)cc(C(F)(F)F)c1` (stereo not shown) [P.13, 3-[1-[[3,5-bis(trifluoromethyl)benzoyl]amino]ethyl]-N-ethyl-N-methyl-pyrazine-2-carboxamide] stands 75 °C. Take `CNC(=O)c1nccnc1C(C)NC(=O)c1cc(C(F)(F)F)cc(C(F)(F)F)c1` (stereo not shown) [P.19, 3-[1-[[3,5-bis(trifluoromethyl)benzoyl]amino]ethyl]-N-methyl-pyrazine-2-carboxamide]: the melting point came out at 164 °C. Still for that read-out and setting: under `CC(NC(=O)c1cc(C(F)(F)F)cc(C(F)(F)F)c1)c1nccnc1C(=O)NC1COC1` (stereo not shown) [P.20, 3-[1-[[3,5-bis(trifluoromethyl)benzoyl]amino]ethyl]-N-(oxetan-3-yl)pyrazine-2-carboxamide] stands 68 °C. `CCCNC(=O)c1nccnc1C(C)NC(=O)c1cc(C(F)(F)F)cc(C(F)(F)F)c1` (stereo not shown) [P.2, 3-[1-[[3,5-bis(trifluoromethyl)benzoyl]amino]ethyl]-N-propyl-pyrazine-2-carboxamide] displayed a melting point of 127 °C. Same read-out and setting: under `CC(NC(=O)c1cc(C(F)(F)F)cc(C(F)(F)F)c1)c1nccnc1C(=O)NCCC#N` (stereo not shown) [P.21, 3-[1-[[3,5-bis(trifluoromethyl)benzoyl]amino]ethyl]-N-(2-cyanoethyl) pyrazine-2-carboxamide] stands 156 °C; under `CC(NC(=O)c1cc(C(F)(F)F)cc(C(F)(F)F)c1)c1nccnc1C(=O)Nc1ccc(C#N)cc1` (stereo not shown) [P.12, 3-[1-[[3,5-bis(trifluoromethyl)benzoyl]amino]ethyl]-N-(4-cyanophenyl)pyrazine-2-carboxamide], 241 °C. Still for that read-out and setting: next, `CC(NC(=O)c1cc(C(F)(F)F)cc(C(F)(F)F)c1)c1nccnc1C(=O)NCC#N` (stereo not shown) [P.11, 3-[1-[[3,5-bis(trifluoromethyl)benzoyl]amino]ethyl]-N-(cyanomethyl)pyrazine-2-carboxamide]: 193 °C.
